According to patent publication US11884627B2, “Compounds and compositions for treating conditions associated with LPA receptor activity” (Lhotse Bio, Inc., priority 2022, dated 2024):
Read-outs that look alike come from different tables or passages of the source.

Biological target: T1, human LPA1 (Homo sapiens, UniProt Q92633)
T1 construct: expressed in transfected cells; host or cells: CHO-K1
Assay: In vitro LPA1 calcium flux antagonist assay - Bioduro protocol
Type: cell-based
Conditions: CHO-K1 cells overexpressing human LPA1 and G15a, LPA challenge at EC80
Description: In Vitro LPA1 Calcium Flux Antagonist Assay—Bioduro Protocol
CHO-K1 cells overexpressing human LPA1 and G15a were seeded at a total volume of 20 μL (15000 cells/well) into Matrigel pre-coated 384-well plates (corning −3764) and incubated at 37° C. After overnight incubation, the cells were serum starved for 4 h. Assays were performed in dye loading buffer containing 1× Fluo-8 AM (AAT Bioquest, 21080) and 2.5 mM probenecid (Thermo Fisher, 36400) in HBSS/20 mM Hepes. After cell starvation, the medium was replaced with 20 μL of dye loading buffer and incubated at 37° C., for 30 min. Then 5 μL of 5× compound titrated in dye loading buffer was added to the cells and incubated for 30 min followed by LPA challenge at EC80. Calcium mobilization was measured on a FLIPR Tetra (MSD). For LPA EC80 determination, starved cells were incubated with 20 μL of dye loading buffer for 1 h, then 5 μL of 5×LPA titrated in dye loading buffer was added to the cells. Calcium signals induced by LPA was monitors on a FLIPR.
Percentage inhibition is calculated using the following formula: % Inhibition=100%×(1−(mean RFU of test sample−mean RFU of DMSO)/(mean RFU of LPA control−mean RFU of DMSO)).
Table B3 and Table B4 show the biological activity of compounds in in vitro LPA1 Calcium flux antagonist assay—Bioduro protocol.

[1] = calcium mobilization on FLIPR Tetra, read-out: IC50
[2] = Table B3, read-out: Activity (IC50 class)

T1 sequence (Q92633 whole entry): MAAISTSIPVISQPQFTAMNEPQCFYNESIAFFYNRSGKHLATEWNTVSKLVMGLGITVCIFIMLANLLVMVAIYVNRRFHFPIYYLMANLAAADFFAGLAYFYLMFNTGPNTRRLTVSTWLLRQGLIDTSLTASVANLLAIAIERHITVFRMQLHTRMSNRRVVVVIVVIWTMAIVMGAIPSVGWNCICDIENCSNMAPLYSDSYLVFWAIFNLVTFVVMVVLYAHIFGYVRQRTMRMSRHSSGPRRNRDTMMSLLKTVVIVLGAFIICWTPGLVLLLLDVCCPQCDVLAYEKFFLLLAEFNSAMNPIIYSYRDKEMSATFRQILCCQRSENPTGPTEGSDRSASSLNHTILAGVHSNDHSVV

| Compound | IC50 [1] | IC50 [2] |
| --- | --- | --- |
| COc1cc(-c2ccc(NC3(C(=O)O)CCOCC3)cc2COC2Cc3ccccc3C2)cc(OC)c1C(C)O (centres unmarked) [Compound 135] | 27.8 nM | < 100 nM |
| COc1cc(-c2ccc(NC3(C(=O)O)CCNCC3)cc2COC2Cc3ccccc3C2)cc(OC)c1C [Compound 136] | 885 nM | > 1000 nM |
| CCOC1CC(Nc2ccc(-c3cc(OC)c(C)c(OC)c3)c(COC3Cc4ccccc4C3)c2)(C(=O)O)C1 (centres unmarked) [Compound 137] | 45.2 nM | < 100 nM |
| COc1cc(-c2ccc(NC3(C(=O)O)CCN(C)CC3)cc2COC2CCCC2)cc(OC)c1C [Compound 138] | 174 nM | 100 to 1000 nM |
| COc1cc(-c2ccc(NC3(C(=O)O)CCN(C(C)=O)CC3)cc2COC2CCCC2)cc(OC)c1C [Compound 139] | 353 nM | 100 to 1000 nM |
| COC(=O)N1CCC(Nc2ccc(-c3cc(OC)c(C)c(OC)c3)c(COC3CCCC3)c2)(C(=O)O)CC1 [Compound 140, 4-((2-((cyclopentyloxy)methyl)-3′,5′-dimethoxy-4′-methyl-[1,1′-biphenyl]-4-yl)amino)-1-(methoxycarbonyl)piperidine-4-carboxylic acid] | 28.8 nM | < 100 nM |
| COc1cc(-c2c(C)cc(NC3(C(=O)O)CCOCC3)cc2COC2CCCC2)cc(OC)c1C [Compound 141, 4-((2-((cyclopentyloxy)methyl)-3′,5′-dimethoxy-4′,6-dimethyl-[1,1′-biphenyl]-4-yl)amino) tetrahydro-2H-pyran-4-carboxylic acid] | 24.5 nM | < 100 nM |
| COc1cc(-c2ccc(NC3(C(=O)O)CCNCC3)cc2COC2CCCC2)cc(OC)c1C [Compound 142] | > 10000 nM | > 1000 nM |
| COCC1CC(Nc2ccc(-c3cc(OC)c(C)c(OC)c3)c(COC3Cc4ccccc4C3)c2)(C(=O)O)C1 (centres unmarked) [Compound 143] | 53.8 nM | < 100 nM |
| COC(=O)N1CC(Nc2ccc(-c3cc(OC)c(C)c(OC)c3)c(COC3CCCC3)c2)(C(=O)O)C1 [Compound 144] | 59.5 nM | < 100 nM |
| COc1cc(-c2ccc(NC3(C(=O)O)CCOCC3)cc2COC2CCCC2)ccc1C [Compound 145] | 486 nM | 100 to 1000 nM |
| COc1cc(OC)cc(-c2ccc(NC3(C(=O)O)CCOCC3)cc2COC2CCCC2)c1 [Compound 146] | 77.2 nM | < 100 nM |
| COc1cc(-c2c(F)cc(NC3(C(=O)O)CCOCC3)cc2COC2CCCC2)cc(OC)c1C [Compound 147, 4-((2-((cyclopentyloxy)methyl)-6-fluoro-3′,5′-dimethoxy-4′-methyl-[1,1′-biphenyl]-4-yl)amino)tetrahydro-2H-pyran-4-carboxylic acid] | 20.9 nM | < 100 nM |
| COc1cc(-c2ccc(NC3(C(=O)O)CCOCC3)cc2COC2CCCC2)c(C)c(OC)c1C [Compound 148, 4-((2-((cyclopentyloxy)methyl)-3′,5′-dimethoxy-2′,4′-dimethyl-[1,1′-biphenyl]-4-yl)amino)tetrahydro-2H-pyran-4-carboxylic acid] | 10.5 nM | < 100 nM |
| COc1cc(-c2c(C)cc(NC3(C(=O)O)CCOCC3)cc2COC2CCCC2)c(C)c(OC)c1C [Compound 149] | 88 nM | < 100 nM |
| COc1cc(-c2ccc(NC3(C(=O)O)CCOCC3)cc2COCC2(C#N)CC2)cc(OC)c1C [Compound 151] | 1580 nM | > 1000 nM |
| COc1cc(-c2ccc(NC3(C(=O)O)CCOCC3)cc2COC2CCCC2)cc(OC)n1 [Compound 152, 4-((3-((cyclopentyloxy)methyl)-4-(2,6-dimethoxypyridin-4-yl)phenyl)amino)tetrahydro-2H-pyran-4-carboxylic acid] | 390 nM | 100 to 1000 nM |
| COc1cc(-c2ccc(NC3(C(=O)O)CCOCC3)cc2CNC2CCCC2)cc(OC)c1C [Compound 153] | > 10000 nM | > 1000 nM |
| COC(=O)N1CCC(Nc2cc(C)c(-c3cc(OC)cc(OC)c3)c(COC3CCCC3)c2)(C(=O)O)CC1 [Compound 154] | 224 nM | 100 to 1000 nM |

Now from value to compound:

| IC50 [1] | IC50 [2] | Compound |
| --- | --- | --- |
| 252 nM | 100 to 1000 nM | CCOC(=O)N1CCC(Nc2cc(C)c(-c3cc(OC)cc(OC)c3)c(COC3CCCC3)c2)(C(=O)O)CC1 [Compound 155] |
| 162 nM | 100 to 1000 nM | COc1cc(OC)cc(-c2c(C)cc(NC3(C(=O)O)CCOCC3)cc2COC2CCCC2)c1 [Compound 156] |
| 112 nM | 100 to 1000 nM | COC(=O)N1CCC(Nc2ccc(-c3cc(OC)cc(OC)c3)c(COC3CCCC3)c2)(C(=O)O)CC1 [Compound 157] |
| 976 nM | 100 to 1000 nM | COC(=O)N1CCC(Nc2cc(C)c(-c3cc(C#N)cc(OC)c3)c(COC3CCCC3)c2)(C(=O)O)CC1 [Compound 161] |
| 382 nM | 100 to 1000 nM | COc1cc(-c2c(C)cc(OC3(C(=O)O)CCOCC3)cc2COC2CCCC2)cc(OC)c1C [Compound 163] |
| > 10000 nM | > 1000 nM | COc1cc(O)nc(-c2c(C)cc(NC3(C(=O)O)CCOCC3)cc2COC2CCCC2)c1 [Compound 164] |
| 10.9 nM | < 100 nM | COc1cc(-c2ccc(NC3(C(=O)O)CCOCC3)cc2COC2CCCC2)c(F)c(OC)c1C [Compound 165] |
| 9.31 nM | < 100 nM | COc1cc(-c2ccc(NC3(C(=O)O)CCOCC3)cc2COC2CCCC2)c(Cl)c(OC)c1C [Compound 166] |
| 27.6 nM | < 100 nM | COc1cc(-c2c(F)cc(NC3(C(=O)O)CCOCC3)cc2COC2CCCC2)c(F)c(OC)c1C [Compound 168] |
| > 10000 nM | > 1000 nM | COc1cc(OC)cc(-c2ccc(NC3(C(=O)O)CCOCC3)cc2CO[C@H]2CCC[C@H]2NC(C)=O)c1 [Compound 169] |
| 1500 nM | > 1000 nM | COc1cc(OC)nc(-c2c(C)cc(NC3(C(=O)O)CCOCC3)cc2COC2CCCC2)c1 [Compound 170] |
| > 10000 nM | > 1000 nM | COC(=O)N1CCC(Nc2cc(C)c(-c3cc(OC)ccn3)c(COC3CCCC3)c2)(C(=O)O)CC1 [Compound 171] |
| 82.1 nM | < 100 nM | COc1cccc(-c2ccc(NC3(C(=O)O)CCOCC3)cc2COC2CCCC2)c1C [Compound 172] |
| 314 nM | 100 to 1000 nM | COc1ccc(C)c(-c2ccc(NC3(C(=O)O)CCOCC3)cc2COC2CCCC2)c1 [Compound 173] |
| 29.3 nM | < 100 nM | COc1cc(OC)c(Cl)c(-c2c(F)cc(NC3(C(=O)O)CCOCC3)cc2COC2CCCC2)c1 [Compound 174] |
| 175 nM | 100 to 1000 nM | COc1cc(-c2c(COC3CCCC3)cc(NC3(C(=O)O)CCOCC3)cc2OC)cc(OC)c1C [Compound 175] |
| 883 nM | 100 to 1000 nM | COCC(=O)N1CCC(Nc2cc(C)c(-c3cc(OC)cc(OC)c3)c(COC3CCCC3)c2)(C(=O)O)CC1 [Compound 176] |
| 1320 nM | > 1000 nM | COc1cc(OC)nc(-c2c(C)cc(NC3(C(=O)O)CCOCC3)cc2COC2CCCC2)n1 [Compound 178] |
| 24.9 nM | < 100 nM | COc1cc(OC)c(C)c(-c2ccc(NC3(C(=O)O)CCOCC3)cc2COC2CCCC2)c1 [Compound 179] |
| 39.7 nM | < 100 nM | COc1cc(OC)c(C)c(-c2c(F)cc(NC3(C(=O)O)CCOCC3)cc2COC2CCCC2)c1 [Compound 180] |
| 55.2 nM | < 100 nM | COc1c(C)ccc(-c2ccc(NC3(C(=O)O)CCOCC3)cc2COC2CCCC2)c1C [Compound 181] |
